In the supplement of paper PMC11061612:

Legend:
Experiment in all cases: combination Emax (second highest fraction inhibited in the dose matrix, 72 h); higher = more inhibition; extreme values may be limits of the assay
[1] = system: CAL-33 (Oral Cavity Carcinoma)
Summary of the method: (§1)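 Bliss excess equals the observed combination effect minus the expected value EA + EB − EA·EB, where EA and EB are the effects of each agent alone. Combination Emax is the second-highest inhibition within the matrix. Inhibition was scaled from CellTiter-Glo 2.0 luminescence, with 0 set by vehicle wells and 1 by blank wells, after 72 hours of two-drug dosing of cells plated in 1536-well plates.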

CAL-72 (Osteosarcoma) = system: CAL-72 (Osteosarcoma)
Summary of the method: as §1

[2] = system: Detroit562 (Head and Neck Carcinoma)
Summary of the method: as §1

[3] = system: HeLa (Cervical Carcinoma)
Summary of the method: as §1

[4] = system: Hs-746T (Gastric Carcinoma)
Summary of the method: as §1

[5] = system: HuCCT1 (Biliary Tract Carcinoma)
Summary of the method: as §1

[6] = system: HuH-7 (Hepatocellular Carcinoma)
Summary of the method: as §1

[7] = system: L-428 (Hodgkin's Lymphoma)
Summary of the method: as §1

LOXIMVI (Melanoma) = system: LOXIMVI (Melanoma)
Summary of the method: as §1

[8] = system: LS-123 (Colorectal Carcinoma)
Summary of the method: as §1

[9] = system: NCI-H1568 (Lung Adenocarcinoma)
Summary of the method: as §1

NCI-H2052 (Mesothelioma) = system: NCI-H2052 (Mesothelioma)
Summary of the method: as §1

[10] = system: NCI-H209 (Small Cell Lung Carcinoma)
Summary of the method: as §1

NCI-H2722 (Mesothelioma) = system: NCI-H2722 (Mesothelioma)
Summary of the method: as §1

[11] = system: NCI-H524 (Small Cell Lung Carcinoma)
Summary of the method: as §1

[12] = system: OE21 (Esophageal Squamous Cell Carcinoma)
Summary of the method: as §1

[13] = system: OV-56 (Ovarian Carcinoma)
Summary of the method: as §1

[14] = system: SAS (Oral Cavity Carcinoma)
Summary of the method: as §1

[15] = system: SW1573 (Lung Adenocarcinoma)
Summary of the method: as §1

SMILES	combination Emax [1]	combination Emax (CAL-72 (Osteosarcoma))	combination Emax [2]	combination Emax [3]	combination Emax [4]	combination Emax [5]	combination Emax [6]	combination Emax [7]	combination Emax (LOXIMVI (Melanoma))	combination Emax [8]	combination Emax [9]	combination Emax (NCI-H2052 (Mesothelioma))	combination Emax [10]	combination Emax (NCI-H2722 (Mesothelioma))	combination Emax [11]	combination Emax [12]	combination Emax [13]	combination Emax [14]	combination Emax [15]
CN(C)CCCOc1ccc(-c2ccc3ncc4c(c3c2)n(C2CCOCC2)c(=O)n4C)cn1 [AZD0156] + O=C(c1cc(Cc2n[nH]c(=O)c3ccccc23)ccc1F)N1CCN(C(=O)C2CC2)CC1 [Olaparib] (first compound max 3 µM, partner max 3 µM)	0.352	0.416	0.435	0.131	0.378	0.202	0.16	0.228	0.377	0.37	0.233	0.251	0.792	0.181	0.496	0.283	0.0996	0.212	0.162
C=CCn1c(=O)c2cnc(Nc3ccc(N4CCN(C)CC4)cc3)nc2n1-c1cccc(C(C)(C)O)n1 [AZD1775] + CCc1c2c(nc3ccc(O)cc13)-c1cc3c(c(=O)n1C2)COC(=O)[C@]3(O)CC [SN-38] (first compound max 1 µM, partner max 0.3 µM)		0.838				0.809			0.863	0.828					0.76			1	
CN(CCO)CC[C@H](CSc1ccccc1)Nc1ccc(S(=O)(=O)NC(=O)c2ccc(N3CCC([C@@H](O)c4ccccc4-c4ccc(Cl)cc4)CC3)cc2)cc1S(=O)(=O)C(F)(F)F [AZD4320] + CS(=O)(=O)CCNCc1ccc(-c2ccc3ncnc(Nc4ccc(OCc5cccc(F)c5)c(Cl)c4)c3c2)o1 [Lapatinib] (first compound max 1 µM, 7x7, partner max 10 µM)		0.933				0.615			0.64						0.968			0.525	
Cc1c2c(nn1C)CSCc1cc(n(C)n1)CSc1cc(c3ccccc3c1)OCCCc1c(C(=O)O)n(C)c3c-2c(Cl)ccc13 [AZD5991] + CC(=O)O[C@H]1C(=O)[C@@]2(C)[C@H]([C@H](OC(=O)c3ccccc3)[C@]3(O)C[C@H](OC(=O)[C@H](O)[C@@H](NC(=O)c4ccccc4)c4ccccc4)C(C)=C1C3(C)C)[C@]1(OC(C)=O)CO[C@@H]1C[C@@H]2O [Paclitaxel] (first compound max 1 µM, 7x7, partner max 3 µM)		0.736				0.549			0.755	0.463					0.929			0.66	
Cc1c2c(nn1C)CSCc1cc(n(C)n1)CSc1cc(c3ccccc3c1)OCCCc1c(C(=O)O)n(C)c3c-2c(Cl)ccc13 [AZD5991] + Nc1ccn([C@@H]2O[C@H](CO)[C@@H](O)C2(F)F)c(=O)n1 [Gemcitabine] (first compound max 1 µM, 7x7, partner max 0.3 µM)		0.613				0.506			0.835	0.404					0.788			0.924	
C[C@@H]1COCCN1c1cc(C2([S@](C)(=N)=O)CC2)nc(-c2ccnc3[nH]ccc23)n1 [AZD6738] + C1CC(C1)(C(=O)[O-])C(=O)[O-].N.N.[Pt+2] [Carboplatin] (first compound max 10 µM, 7x7, partner max 10 µM)		0.718				0.683			0.619	0.626					0.687			0.759	
C[C@@H](Nc1cc(F)cc(F)c1)c1cc(C(=O)N(C)C)cc2c(=O)cc(N3CCOCC3)oc12 [AZD8186] + C1CN(CCC1(C(=O)N[C@@H](CCO)C2=CC=C(C=C2)Cl)N)C3=NC=NC4=C3C=CN4 [AZD5363] (first compound max 10 µM, 7x7, partner max 10 µM)		0.29				0.413			0.287	0.408					0.224			0.364	
C[C@@H](Nc1cc(F)cc(F)c1)c1cc(C(=O)N(C)C)cc2c(=O)cc(N3CCOCC3)oc12 [AZD8186] + CC(=O)c1c(C)c2cnc(Nc3ccc(N4CCNCC4)cn3)nc2n(C2CCCC2)c1=O [Palbociclib] (first compound max 10 µM, 7x7, partner max 10 µM)		0.398				0.479			0.623	0.478					0.571			0.609	
C[C@@H](Oc1cc(-c2cnn(C3CCNCC3)c2)cnc1N)c1c(Cl)ccc(F)c1Cl [Crizotinib] + CC1=C(C(=CC=C1)Cl)NC(=O)C2=CN=C(S2)NC3=CC(=NC(=N3)C)N4CCN(CC4)CCO [Dasatinib] (first compound max 10 µM, 7x7, partner max 2 µM)		0.79				0.82			0.972	0.967					0.977			0.779	
C[C@@H](Oc1cc(-c2cnn(C3CCNCC3)c2)cnc1N)c1c(Cl)ccc(F)c1Cl [Crizotinib] + Cn1cnc2c(F)c(Nc3ccc(Br)cc3Cl)c(C(=O)NOCCO)cc21 [Selumetinib] (first compound max 10 µM, 7x7, partner max 10 µM)		0.59				0.725			0.926	0.62					0.983			0.781	
CS(=O)(=O)CCNCc1ccc(-c2ccc3ncnc(Nc4ccc(OCc5cccc(F)c5)c(Cl)c4)c3c2)o1 [Lapatinib] + Cn1cnc2c(F)c(Nc3ccc(Br)cc3Cl)c(C(=O)NOCCO)cc21 [Selumetinib] (first compound max 10 µM, 7x7, partner max 10 µM)		0.446				0.801			0.717	0.677					0.305			0.677	
CS(=O)(=O)CCNCc1ccc(-c2ccc3ncnc(Nc4ccc(OCc5cccc(F)c5)c(Cl)c4)c3c2)o1 [Lapatinib] + NC1(c2ccc(-c3nc4ccn5c(=O)[nH]nc5c4cc3-c3ccccc3)cc2)CCC1 [MK-2206] (first compound max 10 µM, 7x7, partner max 10 µM)		0.89				0.893			0.967	0.629		0.515			0.941			0.641	
O=C(c1cc(Cc2n[nH]c(=O)c3ccccc23)ccc1F)N1CCN(C(=O)C2CC2)CC1 [Olaparib] + CC1(C)CCC(CN2CCN(c3ccc(C(=O)NS(=O)(=O)c4ccc(NCC5CCOCC5)c([N+](=O)[O-])c4)c(Oc4cnc5[nH]ccc5c4)c3)CC2)=C(c2ccc(Cl)cc2)C1 [Venetoclax] (first compound max 10 µM, 7x7, partner max 1 µM)		0.191				0.0844			0.352	0.191					0.206			0.176	
O=C(c1cc(Cc2n[nH]c(=O)c3ccccc23)ccc1F)N1CCN(C(=O)C2CC2)CC1 [Olaparib] + CN(CC[C@H](CSC1=CC=CC=C1)NC2=C(C=C(C=C2)S(=O)(=O)NC(=O)C3=CC=C(C=C3)N4CCC(CC4)[C@H](C5=CC=CC=C5C6=CC=C(C=C6)Cl)O)S(=O)(=O)C(F)(F)F)CCO [AZD4320] (first compound max 10 µM, 7x7, partner max 1 µM)		0.183				0.193			0.447	0.512					0.755			0.205	
O=C(c1cc(Cc2n[nH]c(=O)c3ccccc23)ccc1F)N1CCN(C(=O)C2CC2)CC1 [Olaparib] + COc1nnc2ccc(N3CCC(c4ccc(OCCN5CCN(C)C(=O)[C@H]5C)cc4)CC3)nn12 [AZD5153] (first compound max 10 µM, 7x7, partner max 1 µM)		0.475				0.456			0.864	0.359					0.542			0.742	
O=C(c1cc(Cc2n[nH]c(=O)c3ccccc23)ccc1F)N1CCN(C(=O)C2CC2)CC1 [Olaparib] + Cc1c2c(nn1C)CSCc1cc(n(C)n1)CSc1cc(c3ccccc3c1)OCCCc1c(C(=O)O)n(C)c3c-2c(Cl)ccc13 [AZD5991] (first compound max 10 µM, 7x7, partner max 1 µM)		0.191				0.15			0.311	0.127					0.426			0.122	
CCc1c2c(nc3ccc(O)cc13)-c1cc3c(c(=O)n1C2)COC(=O)[C@]3(O)CC [SN-38] + O=C(c1cc(Cc2n[nH]c(=O)c3ccccc23)ccc1F)N1CCN(C(=O)C2CC2)CC1 [Olaparib] (first compound max 0.3 µM, 7x7, partner max 10 µM)	0.962	0.708		0.397		0.662		0.94	0.784	0.55				0.38	0.783	0.669		1	
Cc1nc(-c2cn3c(n2)-c2ccc(-c4cnn(C(C)(C)C(N)=O)c4)cc2OCC3)n(C(C)C)n1 [Taselisib] + O=C(Nc1ccc2[nH]nc(-c3ccncc3)c2c1)[C@@H]1CCN(CC(=O)N2CCN(c3ccc(-c4ncccn4)cc3)CC2)C1 [SCH772984] (first compound max 10 µM, 7x7, partner max 5 µM)		0.438				0.839			1	0.889					0.411			0.945	
